In brackets after ≈: the same amount, converted by molar mass. Activity calls are given as the source filed them. The rule behind the calls is not given here.
What was measured:
[1] = tested on: Klebsiella pneumoniae subsp. pneumoniae; assay: Antibacterial activity against carbapenem-resistant Klebsiella pneumoniae subsp. pneumoniae BAA-2472 assessed as reduction in microbial growth measured after 16 to 18 hrs by microbial dilution method; format: functional; conditions: time 16-18 hrs
[2] = tested on: Klebsiella pneumoniae subsp. pneumoniae; assay: Antibacterial activity against carbapenem-resistant Klebsiella pneumoniae subsp. pneumoniae BAA-2470 assessed as reduction in microbial growth measured after 16 to 18 hrs by microbial dilution method; format: functional; conditions: time 16-18 hrs
Klebsiella pneumoniae [3] = assay: Antibacterial activity against carbapenem-resistant Klebsiella pneumoniae BAA-2473 assessed as reduction in microbial growth measured after 16 to 18 hrs by microbial dilution method; format: functional; conditions: time 16-18 hrs
Klebsiella pneumoniae [4] = assay: Antibacterial activity against carbapenem-resistant Klebsiella pneumoniae 571278 assessed as reduction in microbial growth measured after 16 to 18 hrs by microbial dilution method; format: functional; conditions: time 16-18 hrs
Klebsiella pneumoniae [5] = assay: Antibacterial activity against carbapenem-resistant Klebsiella pneumoniae 565345 assessed as reduction in microbial growth measured after 16 to 18 hrs by microbial dilution method; format: functional; conditions: time 16-18 hrs
Escherichia coli [6] = assay: microbe, parasite or virus in culture; conditions: 567975
Description: Antibacterial activity against carbapenem-resistant Escherichia coli 567975 assessed as reduction in microbial growth measured after 16 to 18 hrs by microbial dilution method

Klebsiella pneumoniae [7] = assay: Antibacterial activity against carbapenem-resistant Klebsiella pneumoniae 552439 assessed as reduction in microbial growth measured after 16 to 18 hrs by microbial dilution method; format: functional; conditions: time 16-18 hrs
Escherichia coli [8] = assay: Antibacterial activity against carbapenem-resistant Escherichia coli BAA-2469 assessed as reduction in microbial growth measured after 16 to 18 hrs by microbial dilution method; format: functional; conditions: time 16-18 hrs
Klebsiella pneumoniae [9] = assay: Antibacterial activity against carbapenem-resistant Klebsiella pneumoniae 538961 assessed as reduction in microbial growth measured after 16 to 18 hrs by microbial dilution method; format: functional; conditions: time 16-18 hrs
Escherichia coli [10] = assay: microbe, parasite or virus in culture; conditions: 565988
Description: Antibacterial activity against carbapenem-resistant Escherichia coli 565988 assessed as reduction in microbial growth measured after 16 to 18 hrs by microbial dilution method

Escherichia coli [11] = assay: Antibacterial activity against carbapenem-resistant Escherichia coli BAA-2471 assessed as reduction in microbial growth measured after 16 to 18 hrs by microbial dilution method; format: functional; conditions: time 16-18 hrs
Escherichia coli [12] = assay: microbe, parasite or virus in culture; conditions: 541588
Description: Antibacterial activity against carbapenem-resistant Escherichia coli 541588 assessed as reduction in microbial growth measured after 16 to 18 hrs by microbial dilution method

Escherichia coli [13] = assay: Antibacterial activity against carbapenem-resistant Escherichia coli 571307 assessed as reduction in microbial growth measured after 16 to 18 hrs by microbial dilution method; format: functional; conditions: time 16-18 hrs
Enterobacter cloacae = assay: Antibacterial activity against carbapenem-resistant Enterobacter cloacae BAA-2468 assessed as reduction in microbial growth measured after 16 to 18 hrs by microbial dilution method; format: functional; conditions: time 16-18 hrs
[14] = Inhibition of VIM-1 (unknown origin) using FC5 as substrate preincubated for 10 mins followed by substrate addition and measured immediately by fluorescence based analysis; design: species or system Bacteria
[15] = biological target: Metallo-beta-lactamase type 2 (Bacteria, UniProt C7C422); assay: Inhibition of N-terminal truncated NDM1 (1 to 49N residues) (unknown origin) extracted from Escherichia coli BL21(DE3) cells using FC5 as substrate preincubated for 10 mins followed by substrate addition and measured immediately by fluorescence based analysis
[16] = Inhibition of IMP-1 (unknown origin) using FC5 as substrate preincubated for 10 mins followed by substrate addition and measured immediately by fluorescence based analysis; design: species or system Bacteria
[17] = biological target: Metallo-beta-lactamase type 2 (Bacteria) (UniProt C7C422); assay: Induction of thermal stabilization of NDM-1 (unknown origin) assessed as melting temperature at 6.25 uM by differential scanning fluorimetry analysis
[18] = biological target: Metallo-beta-lactamase type 2 (Bacteria) (UniProt C7C422); assay: Induction of thermal stabilization of NDM-1 (unknown origin) assessed as melting temperature at 12.5 uM by differential scanning fluorimetry analysis
Klebsiella pneumoniae [19] = assay: Synergistic antibacterial activity against Klebsiella pneumoniae ATCC BAA 2146 expressing NDM-1 measured after 16 to 18 hrs in presence of imipenem by microbial dilution method; format: functional, organism-based; conditions: time 16-18 hrs
[20] = biological target: Metallo-beta-lactamase type 2 (Bacteria) (UniProt C7C422); assay: Induction of thermal stabilization of NDM-1 (unknown origin) assessed as melting temperature at 50 uM by differential scanning fluorimetry analysis
[21] = biological target: Metallo-beta-lactamase type 2 (Bacteria) (UniProt C7C422); assay: Induction of thermal stabilization of NDM-1 (unknown origin) assessed as melting temperature at 25 uM by differential scanning fluorimetry analysis
[22] = biological target: Metallo-beta-lactamase type 2 (Bacteria) (UniProt C7C422); assay: Induction of thermal stabilization of NDM-1 (unknown origin) assessed as increase in melting temperature by differential scanning fluorimetry analysis; conditions: dose 3.12-50 µM
Klebsiella pneumoniae [23] = assay: Synergistic antibacterial activity against Klebsiella pneumoniae ATCC BAA 2146 expressing NDM-1 measured after 16 to 18 hrs in presence of meropenem by microbial dilution method; format: functional, organism-based; conditions: time 16-18 hrs
Klebsiella pneumoniae [24] = assay: Anti-infective activity against carbapenem-resistant Klebsiella pneumoniae ATCC BAA 2146 expressing NDM-1 infected in neutropenic female BALB/c mouse deep thigh infection model assessed as reduction in bacterial count at 20 mg/kg, sc pre-infected with bacteria for 2 hrs followed by compound addition and measured after 26 hrs; format: functional
[25] = biological target: Metallo-beta-lactamase type 2 (Bacteria) (UniProt C7C422); assay: Induction of thermal stabilization of NDM-1 (unknown origin) assessed as melting temperature at 3.12 uM by differential scanning fluorimetry analysis

Metallo-beta-lactamase type 2 (Bacteria), sequence (C7C422 whole entry): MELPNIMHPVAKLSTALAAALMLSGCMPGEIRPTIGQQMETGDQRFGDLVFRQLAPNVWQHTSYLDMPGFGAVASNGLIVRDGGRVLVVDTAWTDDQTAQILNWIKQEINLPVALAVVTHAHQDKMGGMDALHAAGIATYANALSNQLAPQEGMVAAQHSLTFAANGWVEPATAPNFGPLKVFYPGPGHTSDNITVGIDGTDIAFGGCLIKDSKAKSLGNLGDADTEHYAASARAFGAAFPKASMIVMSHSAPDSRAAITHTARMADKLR
Metallo-beta-lactamase type 2, sequence (C7C422 whole entry, the tested form may be a part): as the sequence (C7C422 whole entry) above

C[C@@H](O)[C@H]1C(=O)N2C(C(=O)O)=C(S[C@@H]3CN[C@H](C(=O)N(C)C)C3)[C@H](C)[C@H]12 [MEROPENEM]
MIC [1]: > 64 µg/mL | MIC [2]: 32 µg/mL | MIC (Klebsiella pneumoniae [3]): > 64 µg/mL | MIC (Klebsiella pneumoniae [4]): 64 µg/mL | MIC (Klebsiella pneumoniae [5]): 64 µg/mL | MIC (Escherichia coli [6]): 64 µg/mL (≈ 167 µM) | MIC (Klebsiella pneumoniae [7]): > 64 µg/mL | MIC (Escherichia coli [8]): 64 µg/mL | MIC (Klebsiella pneumoniae [9]): > 64 µg/mL | MIC (Escherichia coli [10]): 64 µg/mL (≈ 167 µM) | MIC (Escherichia coli [11]): > 64 µg/mL | MIC (Escherichia coli [12]): 64 µg/mL (≈ 167 µM) | MIC (Escherichia coli [13]): 64 µg/mL | MIC (Enterobacter cloacae): > 64 µg/mL

O=C(O)c1[nH]c2c(c1-c1cncc(Cl)c1)CCc1ccccc1-2
IC50 [14]: 197 nM | IC50 [15]: 2.3 nM | IC50 [16]: 1500 nM

Cc1ccc(-c2c(C(=O)O)[nH]c3c2CCc2ccccc2-3)c(F)c1
IC50 [14]: 1500 nM | IC50 [15]: 7.7 nM | IC50 [16]: 4600 nM

O=C(O)c1[nH]c2c(c1-c1cccc(Cl)c1)CCc1ccccc1-2
IC50 [14]: 468 nM | IC50 [15]: 2.5 nM | IC50 [16]: 350 nM

O=C(O)c1[nH]c2c(c1-c1ccncc1)CCc1ccccc1-2
IC50 [14]: 2600 nM | IC50 [15]: 71 nM | IC50 [16]: 14000 nM

Cc1cc(C(=O)O)[nH]c1-c1ccccc1
IC50 [14]: 96000 nM | IC50 [15]: 10600 nM | IC50 [16]: 44000 nM

O=C(O)c1[nH]c2c(c1-c1cccc(Cl)c1Cl)CCc1ccccc1-2
IC50 [15]: 15 nM | IC50 [16]: 22000 nM

O=C(O)c1[nH]c2c(c1-c1cccc(F)c1F)CCc1ccccc1-2
IC50 [14]: 1900 nM | IC50 [15]: 268 nM | IC50 [16]: 2400 nM

O=C(O)c1[nH]c2c(c1-c1cc(Cl)c(Cl)c(Cl)c1)CCc1ccccc1-2
IC50 [14]: 2200 nM | IC50 [16]: 1200 nM

O=C(O)c1[nH]c2c(c1-c1cc(Cl)cc(Cl)c1)CCc1ccccc1-2
ΔTm [17]: 1 °C | Tm [18]: 8 °C | Activity (Klebsiella pneumoniae [19]): Active | IC50 [14]: 34 nM | IC50 [15]: 8 nM | Tm [20]: 14 °C | Tm [21]: 11 °C | IC50 [16]: 428 nM | Activity [22]: Active | Activity (Klebsiella pneumoniae [23]): Active

C[C@@H](O)[C@H]1C(=O)N2C(C(=O)O)=C(SCCNC=N)C[C@H]12 [IMIPENEM ANHYDROUS]
MIC [1]: > 64 µg/mL | MIC [2]: 16 µg/mL | MIC (Klebsiella pneumoniae [3]): > 64 µg/mL | MIC (Klebsiella pneumoniae [4]): 16 µg/mL | MIC (Klebsiella pneumoniae [5]): 32 µg/mL | Activity (Klebsiella pneumoniae [24]): ~1.15 log10CFU/ml | MIC (Escherichia coli [6]): 16 µg/mL (≈ 53.4 µM) | MIC (Klebsiella pneumoniae [7]): 32 µg/mL | MIC (Escherichia coli [8]): 64 µg/mL | MIC (Klebsiella pneumoniae [9]): 64 µg/mL | MIC (Escherichia coli [10]): 8 µg/mL (≈ 26.7 µM) | MIC (Escherichia coli [11]): 64 µg/mL | MIC (Escherichia coli [12]): 8 µg/mL (≈ 26.7 µM) | MIC (Escherichia coli [13]): 32 µg/mL | MIC (Enterobacter cloacae): > 64 µg/mL

Cc1cc(Cl)cc(-c2c(C(=O)O)[nH]c3c2CCc2ccccc2-3)c1
IC50 [14]: 557 nM | IC50 [16]: 320 nM

COc1ccc(F)cc1-c1c(C(=O)O)[nH]c2c1CCc1ccccc1-2
IC50 [14]: 268 nM | IC50 [15]: 7.5 nM | IC50 [16]: 380 nM

O=C(O)c1[nH]c2c(c1-c1ccc(Cl)cc1Cl)CCc1ccccc1-2
IC50 [14]: 427 nM | IC50 [15]: 2 nM | IC50 [16]: 9800 nM

O=C(O)c1[nH]c2c(c1-c1ccc(F)c(F)c1)CCc1ccccc1-2
IC50 [14]: 1100 nM | IC50 [15]: 2.9 nM | IC50 [16]: 6400 nM

COc1ccccc1-c1c(C(=O)O)[nH]c2c1CCc1ccccc1-2
IC50 [14]: 1000 nM | IC50 [15]: 188 nM | IC50 [16]: 3000 nM

COc1cc(F)ccc1-c1c(C(=O)O)[nH]c2c1CCc1ccccc1-2
IC50 [14]: 580 nM | IC50 [15]: 23.6 nM | IC50 [16]: 1700 nM

O=C(O)c1[nH]c2c(c1-c1cc(F)cc(Cl)c1)CCc1ccccc1-2
ΔTm [17]: 13 °C | Tm [25]: 9 °C | Tm [18]: 15 °C | Activity (Klebsiella pneumoniae [19]): Active | IC50 [14]: 48 nM | IC50 [15]: 1.9 nM | Tm [20]: 17 °C | Tm [21]: 16 °C | IC50 [16]: 149 nM | Activity [22]: Active | Activity (Klebsiella pneumoniae [23]): Active

O=C(O)c1[nH]c2c(c1-c1ccc(Cl)cc1)CCc1ccccc1-2
IC50 [14]: 1700 nM | IC50 [15]: 3.1 nM | IC50 [16]: 2100 nM

Cc1cc(C)cc(-c2c(C(=O)O)[nH]c3c2CCc2ccccc2-3)c1
IC50 [14]: 330 nM | IC50 [15]: 4.7 nM | IC50 [16]: 1200 nM

O=C(O)c1[nH]c2c(c1-c1ccccc1Cl)CCc1ccccc1-2
IC50 [14]: 217 nM | IC50 [15]: 3.1 nM | IC50 [16]: 990 nM

COc1cc(OC)cc(-c2c(C(=O)O)[nH]c3c2CCc2ccccc2-3)c1
IC50 [14]: 308 nM | IC50 [15]: 5 nM | IC50 [16]: 914 nM

O=C(O)c1[nH]c2c(c1-c1cc(F)cc(F)c1)CCc1ccccc1-2
IC50 [14]: 581 nM | IC50 [15]: 47 nM | IC50 [16]: 5600 nM

COc1ccc(-c2c(C(=O)O)[nH]c3c2CCc2ccccc2-3)cc1
IC50 [14]: 34000 nM | IC50 [15]: 905 nM

O=C(O)c1ccccn1 [2-PICOLINIC ACID]
IC50 [14]: > 200000 nM | IC50 [15]: 13700 nM | IC50 [16]: > 200000 nM

O=C(O)c1[nH]c2c(c1-c1ccccc1)CCc1ccccc1-2
IC50 [14]: 3700 nM | IC50 [15]: 111 nM | IC50 [16]: 8500 nM

O=C(O)c1[nH]c2c(c1-c1cccc(F)c1)CCc1ccccc1-2
IC50 [14]: 408 nM | IC50 [15]: 8.1 nM | IC50 [16]: 3000 nM

COc1cc(Cl)cc(-c2c(C(=O)O)[nH]c3c2CCc2ccccc2-3)c1
IC50 [14]: 438 nM | IC50 [16]: 303 nM

NCCN[C@H]1CC[C@H](CC(=O)N[C@H]2Cc3cccc(C(=O)O)c3OB2O)CC1
IC50 [14]: 104 nM | IC50 [16]: 38000 nM

CC(C)(C)c1ccc(-c2c(C(=O)O)[nH]c3c2CCc2ccccc2-3)cc1
IC50 [14]: 797 nM | IC50 [15]: 15 nM | IC50 [16]: 8500 nM

COc1cc(F)cc(-c2c(C(=O)O)[nH]c3c2CCc2ccccc2-3)c1
IC50 [14]: 3500 nM | IC50 [15]: 6.8 nM | IC50 [16]: 15000 nM

O=C(O)c1cc2c([nH]1)-c1ccccc1CC2
IC50 [14]: 7000 nM | IC50 [15]: 8200 nM | IC50 [16]: 23000 nM

O=C(O)c1[nH]c2c(c1-c1cncc(F)c1)CCc1ccccc1-2
IC50 [14]: 2100 nM | IC50 [15]: 62 nM | IC50 [16]: 4100 nM

O=C(O)c1[nH]c2c(c1-c1ccccc1F)CCc1ccccc1-2
IC50 [14]: 613 nM | IC50 [15]: 58 nM | IC50 [16]: 2300 nM
